{"source": "ChEMBL document CHEMBL3638769", "about": "“Inhibitors of STAT3” (2015)"}
{"molecular_target": "Signal transducer and activator of transcription 3 (Homo sapiens, UniProt P40763)", "sequence (P40763 whole entry)": "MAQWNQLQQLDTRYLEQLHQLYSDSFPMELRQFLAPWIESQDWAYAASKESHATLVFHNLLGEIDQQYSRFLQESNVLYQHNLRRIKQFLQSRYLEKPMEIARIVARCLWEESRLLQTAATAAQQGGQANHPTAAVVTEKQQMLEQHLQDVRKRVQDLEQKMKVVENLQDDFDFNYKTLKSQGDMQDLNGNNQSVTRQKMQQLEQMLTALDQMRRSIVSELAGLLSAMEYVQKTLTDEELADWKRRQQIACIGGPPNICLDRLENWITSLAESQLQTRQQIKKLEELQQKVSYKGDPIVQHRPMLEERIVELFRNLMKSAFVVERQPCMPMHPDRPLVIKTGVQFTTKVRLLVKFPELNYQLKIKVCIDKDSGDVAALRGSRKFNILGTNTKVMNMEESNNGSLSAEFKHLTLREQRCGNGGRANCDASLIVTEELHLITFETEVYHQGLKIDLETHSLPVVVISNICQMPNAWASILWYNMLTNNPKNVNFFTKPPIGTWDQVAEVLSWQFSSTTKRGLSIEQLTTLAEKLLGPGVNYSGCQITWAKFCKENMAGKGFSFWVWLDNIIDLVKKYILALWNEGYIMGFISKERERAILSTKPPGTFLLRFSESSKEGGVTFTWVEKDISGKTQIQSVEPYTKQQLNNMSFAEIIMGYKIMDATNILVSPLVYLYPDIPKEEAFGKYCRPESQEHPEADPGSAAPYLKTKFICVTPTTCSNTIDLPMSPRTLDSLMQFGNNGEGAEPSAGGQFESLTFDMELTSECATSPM", "assay": "EMSA Based Assay: A screening process evaluated in vitro disruption of STAT3(dimer)-DNA formation through a previously published EMSA based assays, giving a valuable insight into the inhibitor's mode of action against the STAT3 homo-dimer.", "units": {"IC50": "µM"}}
{"smiles": "CCCCCCNC(=O)c1nc(-c2cccc3ccccc23)oc1Cc1ccc(OP(=O)(O)O)cc1", "IC50": 58}
{"smiles": "O=C(Nc1ccc(C2CCCCC2)cc1)c1nc(-c2ccccc2)sc1Cc1ccc(OP(=O)(O)O)cc1", "IC50": 775}
{"smiles": "CCCCCCNC(=O)c1nc(-c2ccccc2)sc1Cc1ccc(OP(=O)(O)O)cc1", "IC50": 150}
{"smiles": "O=C(O)c1nc(-c2ccccc2)oc1Cc1ccc(OP(=O)(O)O)cc1", "IC50": "> 1000"}
{"smiles": "O=C(Nc1ccc(C2CCCCC2)cc1)c1nc(-c2ccccc2)oc1Cc1ccc(OP(=O)(O)O)cc1", "IC50": 33}
{"smiles": "O=C(Nc1ccc(C2CCCCC2)cc1)c1nc(-c2ccccc2)oc1Cc1ccc(O)cc1", "IC50": "> 1000"}
{"smiles": "CCCCCCNC(=O)c1nc(-c2cccc3ccccc23)sc1Cc1ccc(OP(=O)(O)O)cc1", "IC50": 25}
{"smiles": "O=C(Nc1ccc(C2CCCCC2)cc1)c1nc(-c2cccc3ccccc23)oc1Cc1ccc(OP(=O)(O)O)cc1", "IC50": 255}
{"smiles": "O=C(Nc1ccc(C2CCCCC2)cc1)c1nc(-c2cccc3ccccc23)sc1Cc1ccc(OP(=O)(O)O)cc1", "IC50": 350}
{"smiles": "CCCCCCNC(=O)c1nc(-c2ccccc2)oc1Cc1ccc(OP(=O)(O)O)cc1", "IC50": "> 1000"}
